Assay results published in PubChem BioAssay (NCI).
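Dose response: 5 concentrations. Exposure: 48 h. Format: 96-well plates. Endpoint: linear interpolation; highest concentration if not reached. Here, GI50 denotes the concentration required for 50% inhibition of growth. At the TGI there is no net growth.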

Key:
Assay in all cases: NCI anticancer screen, dose series, 48 h
EKVX NSCLC = system: EKVX NSCLC
COLO 205 colon = system: COLO 205 colon
MALME-3M melanoma = system: MALME-3M melanoma
OVCAR-8 ovarian = system: OVCAR-8 ovarian
MOLT-4 leukemia = system: MOLT-4 leukemia
RXF 393 renal = system: RXF 393 renal
LOX IMVI melanoma = system: LOX IMVI melanoma
HCC-2998 colon = system: HCC-2998 colon
NCI-H460 lung = system: NCI-H460 lung
MDA-MB-435 = system: MDA-MB-435

| Compound | TGI (EKVX NSCLC) | TGI (COLO 205 colon) | TGI (MALME-3M melanoma) | TGI (OVCAR-8 ovarian) | TGI (MOLT-4 leukemia) | TGI (RXF 393 renal) | TGI (LOX IMVI melanoma) | TGI (HCC-2998 colon) | TGI (NCI-H460 lung) | GI50 (EKVX NSCLC) | TGI (MDA-MB-435) | GI50 (COLO 205 colon) | GI50 (MALME-3M melanoma) | GI50 (OVCAR-8 ovarian) | GI50 (MOLT-4 leukemia) | GI50 (RXF 393 renal) | GI50 (HCC-2998 colon) | GI50 (NCI-H460 lung) | GI50 (MDA-MB-435) |
| --- | --- | --- | --- | --- | --- | --- | --- | --- | --- | --- | --- | --- | --- | --- | --- | --- | --- | --- | --- |
| COC(=O)C1(C)CCc2c(OC)ccc(OC)c2C1=O (stereo unspecified) | > 100 µM | > 100 µM | > 100 µM | > 100 µM | > 100 µM | > 100 µM | > 100 µM | > 100 µM |  |  |  |  |  |  |  |  |  |  |  |
| Cc1ccc(-c2nnc(-c3nn(-c4ccccc4)c4nc5ccccc5nc34)o2)cc1 | > 100 µM | > 100 µM |  | 25.7 µM | > 100 µM | 20.5 µM | 40.9 µM |  | 41.6 µM |  |  |  |  |  |  |  |  |  |  |
| O=C(/C=C/c1cc2ccccc2[nH]c1=O)/C=C/c1cc2ccccc2[nH]c1=O | > 100 µM | > 59.7 µM | > 100 µM | > 72.8 µM | > 100 µM | 10.8 µM |  | 9.01 µM | > 100 µM | 22.5 µM | > 20 µM | 10.2 µM | > 59.6 µM | 9.84 µM | 24 µM | 6.88 µM | 5.28 µM | 32.3 µM |  |
| CCOC(=O)C1C(=S)NC(=O)C1C#N (stereo unspecified) | > 100 µM | > 100 µM | > 100 µM | > 100 µM | > 100 µM | > 100 µM | > 100 µM | > 100 µM | > 100 µM |  |  |  |  |  |  |  |  |  |  |
| CC(=O)Nc1ccc(SC#N)c2c(NC(C)=O)cccc12 | > 100 µM | > 100 µM | > 100 µM | > 100 µM | > 82.1 µM | > 100 µM | > 100 µM | > 100 µM | > 100 µM |  |  |  |  |  |  |  |  |  |  |
| O=C1CC(c2c[nH]c3ccccc23)C(=O)N1 (stereo unspecified) | > 100 µM |  | > 100 µM | > 100 µM | > 100 µM | > 100 µM |  | > 100 µM | > 100 µM |  |  |  |  |  |  |  |  |  |  |
| COc1cc2nc(N3CCCC3)nc(NCCc3ccccc3)c2cc1OC | 3.9 µM |  | 3.38 µM | 6.05 µM | 7.69 µM | 2.76 µM |  | 3.64 µM | 3.54 µM | 1.85 µM | 3.25 µM |  | 1.9 µM | 2.14 µM | 2.43 µM | 1.28 µM | 1.96 µM | 1.86 µM | 1.74 µM |
| Clc1ccc(Nc2nc3ccccc3nc2-c2cccs2)cc1Cl | > 100 µM | > 100 µM | > 100 µM | 68.6 µM | > 100 µM | 89.2 µM |  | > 100 µM | > 100 µM |  |  |  |  |  |  |  |  |  |  |
| C1CCC([PH+](C2CCCCC2)C2CCCCC2[PH+](C2CCCCC2)C2CCCCC2)CC1.[Au].[CH-]1CCCCC1CC1CCCC[N-]1 (stereo unspecified) | 1.97 µM | 0.696 µM | 0.739 µM | > 100 µM |  | 1.12 µM |  | 1.49 µM | 1.09 µM | 0.302 µM | 1.01 µM | 0.262 µM | 0.192 µM | 0.264 µM |  | 0.277 µM | 0.404 µM | 0.303 µM | 0.286 µM |
| Cc1c(/C=N/N=C/c2[nH]c(C(=O)OC(C)(C)C)c(C)c2C)[nH]c(C(=O)OC(C)(C)C)c1C | > 100 µM | > 100 µM | > 100 µM | > 100 µM | > 100 µM | > 100 µM | > 100 µM | > 100 µM | > 100 µM |  |  |  |  |  |  |  |  |  |  |
